In patent US20240390457A1, “COMPOSITION AND METHOD OF TREATING BRAIN CANCER” (Morehouse School of Medicine, priority 2023, published 2024):
Where no end group is shown, it is not given here.

Assays:
A172 cells [1] = assay: Cell viability (MTT) proliferation assay, A172; assay type: cell-based, human; conditions: 20 nM PcTX1, 3 h in pH 7.4 or 7.0 ECF; 24 h, 48 h and 72 h
Method: (§1) Cells were seeded in 96-well plates overnight and then incubated with pH 7.4 or 7.0 ECF in the absence or presence of 20 nM PcTX1 for 3 h, and then changed to culture medium containing 5% FBS incubating for 24 h, 48 h and 72 h. After the treatments, cell viability was measured by MTT Cell Proliferation Assay Kit according to the manufacturer's instructions. The absorbance values at 540 nm were detected by spectrometer (Molecular devices).
(§2) Severe acidosis (e.g. pH 6.0) promotes the proliferation of some type of glioma cells. This study first tested the effect of weak acid on the proliferation of A172 and U87MG cells. The study used either pH 7.4 or pH 7.0 solution to pretreat cells for 3 h, and then changed back to medium containing 5% FBS. The cell viability was measured at 24 h, 48 h and 72 h after acid treatment by MTT assay.

A172 cells [2] = assay: Wound-healing assay, A172; assay type: cell-based, human; conditions: weak acid pH 7.0
Method: (§3) Wound-healing assay was performed. Cells were seeded into a 24-well plate and grown to ˜80% confluence. The cell monolayer was scratched with 200 μl sterile pipette tip and treated with ECF with or without PcTX1 for 3 hours. The original wound areas at 0 hour were photographed with microscope (Olympus FSX100, 4×). After 3 hours, cells were then incubated with culture medium containing 1% FBS for 24 hours. 24 hours later, images were taken from the same location of the original wound areas and the migration distance was measured with Image J software. The wound-healing rate was calculated as: the ratio of wound closure=[(Area of original wound at 0 h−Area of wound after healing at 24 h)/Area of original wound at 0 h]×100%.

U87MG cells [3] = assay: Cell viability (MTT) proliferation assay, U87MG; assay type: cell-based, human; conditions: 20 nM PcTX1 with weak acid (pH 7.0), 3 h; different time points
Method: as §1, §2
(§4) Next, the study examined whether knock-down of ASIC1 affects cell proliferation in the presence or absence of extracellular weak acid. MTT assay was performed to detect the cell viability at 24 h and 72 h with and without acid treatment both in siRNA-Control and siRNA-ASIC1 groups. […] The study further examined whether knockdown of ASIC1 has an effect on the migration of U87MG cells. […] The effect of ASIC1 knockdown on migration was also assessed by transwell.

ASIC1 = target: T1, ASIC1 (Homo sapiens, UniProt P78348); assay: Whole-cell patch-clamp recording of acid-activated currents; assay type: cell-based; conditions: PcTX1 20 nM perfusion for several minutes; pH drop 7.4 to 6.0; U87MG cells; n=5
T1 construct: drop of extra-cellular pH from 7.4 to 6.0 can induce transient inward currents in A172 and U87MG cells; endogenous in cells; host or cells: U87MG human glioblastoma cells (ATCC)
T1 sequence (P78348 1-528): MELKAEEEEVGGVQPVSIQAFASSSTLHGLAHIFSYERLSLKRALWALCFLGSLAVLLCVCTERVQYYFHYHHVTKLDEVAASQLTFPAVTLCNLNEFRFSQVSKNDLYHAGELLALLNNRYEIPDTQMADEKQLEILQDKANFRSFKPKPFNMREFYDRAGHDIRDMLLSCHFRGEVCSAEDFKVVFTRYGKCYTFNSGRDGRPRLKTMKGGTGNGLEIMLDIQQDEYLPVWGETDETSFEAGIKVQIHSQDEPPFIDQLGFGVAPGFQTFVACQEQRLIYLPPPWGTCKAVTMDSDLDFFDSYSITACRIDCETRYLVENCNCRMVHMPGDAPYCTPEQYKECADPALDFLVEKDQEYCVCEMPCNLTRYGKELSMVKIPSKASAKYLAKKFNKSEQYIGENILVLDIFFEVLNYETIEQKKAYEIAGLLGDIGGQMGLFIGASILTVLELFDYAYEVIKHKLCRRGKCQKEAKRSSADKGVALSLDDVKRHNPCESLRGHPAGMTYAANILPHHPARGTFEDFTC
Method: Whole-cell currents were recorded by patch-clamp techniques. The currents were recorded with an Axopatch 200B amplifier and low-pass filtered at 2 KHz, digitized using Digidata 1320 DAC unit. Cells were clamped at a holding potential of −80 mV. The patch pipettes were made from thin walled borosilicate glass micropipettes (1.5 mm diameter, World Precision Instruments, Sarasota, FL) by a micropipette puller (PP83; Tokyo, Japan). The range of pipette resistance was 3-5 MΩ when filled with intracellular solu-tion contained 140 mM CsF, 1 mM CaCl2, 2 mM MgCl2, 10 mM HEPES, 11 mM EGTA, 2 mM tet-raethylammonium chloride, and 4 mM MgATP; pH 7.3 adjusted with CsOH, 290 to 300 mOsm adjusted with sucrose. Cells were perfused with an extracellular fluid (ECF) contained 140 mM NaCl, 5.4 mM KCl, 2 mM CaCl2, 1 mM MgCl2, 10 mM Glucose, and 10 mM HEPES; pH 7.4 and 6.0 adjusted with NaOH, 320-330 mOsm. […] The data were recorded and analyzed with pClamp and Sigma Plot software.
To determine whether ASIC1 is expressed in human glioma cells, we first investigated the expression of ASIC1 protein in A172 and U87-MG cells by Western blotting. […] Next, the study detected the existence of acid-activated currents and the effect of pharmacologic agents on the currents. Acid-activated currents were recorded by whole cell patch-clamp. […]

U87MG cells [4] = assay: Wound-healing assay, U87MG; assay type: cell-based, human; conditions: weak acid pH 7.0
Method: as §3, §4

U87MG cells [5] = assay: Transwell migration assay, U87MG; assay type: cell-based, human; conditions: PcTX1, pH 7.0 for 3 h, counted after 24 h
Method: The assay is based on two compartments separated by a mem-brane with an accurately defined pore size. Cell transwell chambers with 8-μm pore size of poly-carbonate membrane filters (Corning, USA) were first pre-coated with poly-L-ornithine over-night. Before plating cells, chambers were incubated with serum-free culture medium for 30 minutes. After that, cells were seeded with culture medium containing 1% FBS in the upper-chambers that were immersed to 750 μl whole medium (DMEM with 10% FBS). After incubating for another 24 hours, some cells on the upper surface of the filter migrated through the membrane to the lower surface of the filter. Cells on the upper face of the filter were wiped out thoroughly with cotton swabs, and those attached on the lower surface were fixed with 4% paraformaldehyde for 15 min. They were then stained with 0.5% crystal violet for 10 min, and let the membrane air dry. The cells on the lower surface of the membrane filter were counted under a microscope in 3-4 random fields with 10× magnification. Cell numbers in each group were normalized to the control groups. Assays were performed in at least 3 independent experiments. […]
Next, the study examined whether knock-down of ASIC1 affects cell proliferation in the presence or absence of extracellular weak acid. […] The effect of ASIC1 knockdown on migration was also assessed by transwell.

A172 cells [6] = assay: Transwell migration assay, A172; assay type: cell-based, human; conditions: PcTX1 20 nM, pH 7.0 for 3 h, counted after 24 h
Method: The assay is based on two compartments separated by a mem-brane with an accurately defined pore size. Cell transwell chambers with 8-μm pore size of poly-carbonate membrane filters (Corning, USA) were first pre-coated with poly-L-ornithine over-night. Before plating cells, chambers were incubated with serum-free culture medium for 30 minutes. After that, cells were seeded with culture medium containing 1% FBS in the upper-chambers that were immersed to 750 μl whole medium (DMEM with 10% FBS). After incubating for another 24 hours, some cells on the upper surface of the filter migrated through the membrane to the lower surface of the filter. Cells on the upper face of the filter were wiped out thoroughly with cotton swabs, and those attached on the lower surface were fixed with 4% paraformaldehyde for 15 min. They were then stained with 0.5% crystal violet for 10 min, and let the membrane air dry. The cells on the lower surface of the membrane filter were counted under a microscope in 3-4 random fields with 10× magnification. Cell numbers in each group were normalized to the control groups. Assays were performed in at least 3 independent experiments.
To further examine the role of ASIC1 in glioma cell migration, the study performed a transwell migration assay using inserts with an 8-μm pore size. […]

PcTX1 (LECWKRRRSFEVCVPKTPKT; ends and bridges not checked; cysteine pairing not given here)
effect on proliferation of A172 cells (MTT) (A172 cells [1]): no influence | effect on acid-induced migration of A172 cells (wound-healing and transwell, summary) (A172 cells [2]): effectively blocked | effect on proliferation of U87MG cells (MTT) (U87MG cells [3]): no clear effect | decrease of the peak of acid-activated currents (ASIC1): 80% | effect on acid-induced migration of U87MG cells (wound-healing and transwell, summary) (U87MG cells [4]): effectively blocked | effect on acid-induced increase of migrated U87MG cells (transwell) (U87MG cells [5]): completely blocked | effect on acid induced migration of A172 cells (transwell) (A172 cells [6]): completely inhibited
